Consider 14 compounds from ChEMBL document CHEMBL4725320 (Bioorg Med Chem Lett, 2020).

The structures appear in SMILES notation.

The target of one test is T1, Nuclear receptor subfamily 1 group D member 1 (Homo sapiens, UniProt P20393).
T1 sequence (P20393 whole entry): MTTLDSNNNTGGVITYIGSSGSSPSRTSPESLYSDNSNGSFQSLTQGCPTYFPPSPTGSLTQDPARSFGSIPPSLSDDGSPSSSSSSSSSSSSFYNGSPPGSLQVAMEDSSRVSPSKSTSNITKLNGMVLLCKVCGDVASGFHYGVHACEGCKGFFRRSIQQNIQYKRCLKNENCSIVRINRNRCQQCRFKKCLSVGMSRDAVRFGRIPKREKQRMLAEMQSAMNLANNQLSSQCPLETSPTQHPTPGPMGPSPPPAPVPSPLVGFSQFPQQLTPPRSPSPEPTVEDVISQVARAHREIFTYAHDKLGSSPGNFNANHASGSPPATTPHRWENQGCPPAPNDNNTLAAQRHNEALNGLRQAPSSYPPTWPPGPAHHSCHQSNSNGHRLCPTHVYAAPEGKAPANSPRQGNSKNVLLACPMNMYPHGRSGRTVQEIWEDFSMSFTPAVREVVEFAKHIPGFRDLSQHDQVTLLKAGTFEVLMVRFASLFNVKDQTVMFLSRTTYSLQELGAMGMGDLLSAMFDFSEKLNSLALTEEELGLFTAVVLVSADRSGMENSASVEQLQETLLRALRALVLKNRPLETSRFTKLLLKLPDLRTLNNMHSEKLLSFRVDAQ
The experiment in a line: Agonist activity at Rev-Erb alpha (unknown origin) by FRET assay. The format is single protein.
In general, EC50 refers to the concentration needed to bring the measured effect to its halfway point. Higher therefore signals a need for much substance. For the compound `FC(F)(F)c1ccc(-c2cncnc2)c(Oc2ccc3nnc(Cl)n3n2)c1`, the EC50 is below 5000 nM.
Regarding `Cc1cc(F)ccc1-c1ccc(C(F)(F)F)cc1Oc1nn(C)c(=O)c2ccsc12`, the EC50 stood at 1130 nM.
As for `FC(F)(F)c1ccc(-c2ccc3ncc(Cl)n3c2)c(Oc2nn3ccnc3c3ccsc23)c1`, the EC50 is 5510 nM.
For `FC(F)(F)c1ccc(-c2cccnc2)c(Oc2ccc3nnc(Cl)n3n2)c1`, the EC50 was below 1000 nM.
Turning to `Cc1cc(Cl)cc(CN(Cc2ccc(Cl)cc2)Cc2ccc([N+](=O)[O-])s2)c1`, the EC50 was determined as 50 nM. This counts as double-digit nanomolar.
Compound `CC(C)(C)Oc1ccc(OC[C@@H]2Cc3cc(F)ccc3CN2C(=O)c2cccc3ccccc23)cc1` yielded an EC50 of 68 nM. This EC50 and that of the compound before are within 1.5-fold of each other.
Same read-out and setting: as for `Cn1nc(Oc2cc(C(F)(F)F)ccc2-c2ccsc2Cl)c2sccc2c1=O`, the figure is 520 nM; as for `CCCCCNC(=O)N1CCC(CN(Cc2ccc(Cl)cc2)Cc2ccc([N+](=O)[O-])s2)C1` (stereo not given) [SR9011], 710 nM.

The next test deals with T1, Nuclear receptor subfamily 1 group D member 1. As to the kind of experiment: Agonist activity at Rev-Erb alpha (unknown origin) by BMAL1-luciferase reporter assay. (In general: In a reporter assay the amount or activity of a reporter protein is the signal.)
`O=C(c1cccc2ccccc12)N1Cc2ccccc2CC1CNCc1ccccc1` (stereo not given) registered an EC50 of 3000 nM.

For another test the target is unchanged. The experiment in a line: Antagonist activity at Rev-Erb alpha (unknown origin) by BMAL1-luciferase reporter assay.
In turn, `O=C(Nc1ccccc1)N1CCC(CN(Cc2ccc(Cl)cc2)Cc2ccc([N+](=O)[O-])s2)CC1` registered an EC50 of 1300 nM.
Regarding `CCOC(=O)C1Cc2ccccc2CN1C(=O)c1ccc(SC)s1` (stereo not given), it took 470 nM to reach a half-maximal effect (EC50).
Take `Cc1cc(Cl)cc(CN(Cc2ccc(Cl)cc2)Cc2ccc([N+](=O)[O-])s2)c1`: it took 2050 nM to reach a half-maximal effect (EC50).
On the same count and under the same terms, the same measure for `CCOC(=O)C1Cc2ccccc2CN1C(=O)c1ccc(C)o1` (stereo not given): 1300 nM.

The target is the same in the next test. As to the kind of experiment: Inverse agonist activity at Rev-Erb alpha LBD (unknown origin) by FRET assay.
In turn, `COCCNc1oc(-c2ccc(N(C)Cc3ccc(Cl)cc3)cc2)nc1C#N` registered an EC50 of 150 nM.

The target of another test is Nuclear receptor subfamily 1 group D member 2 (Homo sapiens) (UniProt Q14995). As to the kind of experiment: Antagonist activity at Rev-Erb beta (unknown origin) by RORE-luciferase reporter assay.
Chain of Nuclear receptor subfamily 1 group D member 2 (Homo sapiens) (Q14995 whole entry, looked up): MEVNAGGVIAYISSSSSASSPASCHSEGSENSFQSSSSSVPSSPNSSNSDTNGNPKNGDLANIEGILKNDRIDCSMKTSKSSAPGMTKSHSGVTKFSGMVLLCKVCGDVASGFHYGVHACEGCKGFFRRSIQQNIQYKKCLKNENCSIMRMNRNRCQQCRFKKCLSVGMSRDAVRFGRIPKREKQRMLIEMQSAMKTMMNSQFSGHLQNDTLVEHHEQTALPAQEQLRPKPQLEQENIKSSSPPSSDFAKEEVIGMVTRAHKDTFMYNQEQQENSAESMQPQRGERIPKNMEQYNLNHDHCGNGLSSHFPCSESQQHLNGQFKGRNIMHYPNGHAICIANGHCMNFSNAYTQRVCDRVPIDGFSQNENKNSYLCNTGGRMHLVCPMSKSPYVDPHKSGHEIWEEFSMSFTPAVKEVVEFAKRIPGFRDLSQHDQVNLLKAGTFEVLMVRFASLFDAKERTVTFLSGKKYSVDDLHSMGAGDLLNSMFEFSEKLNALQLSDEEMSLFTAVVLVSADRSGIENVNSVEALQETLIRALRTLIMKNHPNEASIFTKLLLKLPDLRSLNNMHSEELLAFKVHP
Take `CN1CCN(Cc2cc(CNC3(c4ccccc4F)CCCC3)ccc2O)CC1`: the response was half-maximal at 30000 nM (EC50). This lies in the double-digit micromolar range.
